Results on 12 molecules are retold here after article PMC12430303, “Design and Evaluation of Indole-Based Schiff Bases as α-Glucosidase Inhibitors: CNN-Enhanced Docking, MD Simulations, ADMET Profiling, and SAR Analysis” (Molecules, 2025).

Data set [1] relates to α-Glucosidase from Saccharomyces cerevisiae. Briefly: α-glucosidase inhibition assay (pNPG substrate). The data set is classed as biochemical. As to conditions: for % inhibition R1: replicate 1; for % inhibition R3: replicate 3; for IC50: dose-response, mean ± SD; for % Inhibition: fixed concentration of 100 µM, mean of triplicate (± SD); for Observation (activity level, Table S9) / Observation (inhibition level, Table S7): words, based on % inhibition at 100 µM. As to the method: The α-glucosidase inhibitory activity of 4a–j was evaluated using a standard enzymatic assay. α-Glucosidase from Saccharomyces cerevisiae was employed as the enzyme source, and p-nitrophenyl-α-D-glucopyranoside (pNPG) served as the substrate. The assay was conducted in a 96-well microplate format at 37 °C in 50 mM phosphate buffer (pH 6.8). Briefly, 10 µL of the test compound (dissolved in DMSO) at various concentrations was mixed with 20 µL of the enzyme solution (1 U/mL) and 50 µL of phosphate buffer. The reaction was initiated by adding 20 µL of pNPG (5 mM), and the mixture was incubated for 30 min. The reaction was terminated by adding 50 µL of 0.1 M Na2CO3, and the absorbance of the released p-nitrophenol was measured at […] using a microplate reader. […] All experiments were performed in triplicate, and the results were expressed as mean ± standard deviation (SD). Statistical significance was evaluated using one-way ANOVA followed by Tukey’s post hoc test.

For data set [2], the target named is α-glucosidase. Also noted: method as in PMID 26398141. As to conditions: cited from earlier work.

Regarding `COc1ccc2[nH]c(C(=O)N/N=C/c3ccc([N+](=O)[O-])cc3)cc2c1` [4h, (E)-5-Methoxy-N’-(4-nitrobenzylidene)-1H-indole-2-carbohydrazide], in data set [1] (100 µM), the “% inhibition R1” value turned out to be 90.888% and the “% inhibition R3” value stood at 88.949%. For the same molecule, in data set [1], the IC50 amounted to 14.5 ± 0.76 µM; the “% Inhibition” value is 89.11 ± 1.39%; the “Observation (activity level, Table S9)” value was “High activity”; the “Observation (inhibition level, Table S7)” value is “High inhibition”.
In the case of `COc1ccc2[nH]c(C(=O)N/N=C/c3nccs3)cc2c1` [4a, (E)-5-Methoxy-N’-(thiazol-2-ylmethylene)-1H-indole-2-carbohydrazide], in data set [1] (100 µM), the “% inhibition R1” value was 41.141% and the “% inhibition R3” value came to 33.393%. Moreover, in data set [1], the “% Inhibition” value is 31.75 ± 8.42%; the “Observation (activity level, Table S9)” value was “Low activity”; the “Observation (inhibition level, Table S7)” value is “Low inhibition”.
In the case of `COc1ccc2[nH]c(C(=O)N/N=C/c3cccnc3)cc2c1` [4b, (E)-5-Methoxy-N’-(pyridin-3-ylmethylene)-1H-indole-2-carbohydrazide], in data set [1] (100 µM), the “% inhibition R1” value is 34.129%, the “% inhibition R3” value turned out to be 27.265% and the “% Inhibition” value turned out to be 25.37%. In data set [1], the “Observation (activity level, Table S9)” value was “Low activity” and the “Observation (inhibition level, Table S7)” value is on record as “Low inhibition”.
As for `O=C(N/N=C/c1cc(O)c(O)c(O)c1)c1cc2ccccc2[nH]1` [(E)-N’-(3,4,5-Trihydroxybenzylidene)-1H-indole-2-carbohydrazide], the IC50 in data set [2] was 2.3 µM.
In the case of `COc1ccc2[nH]c(C(=O)N/N=C/c3ccc4ccccc4c3)cc2c1` [4i, (E)-5-Methoxy-N’-(naphthalen-2-ylmethylene)-1H-indole-2-carbohydrazide], in data set [1] (100 µM), the “% inhibition R1” value is 84.106% and the “% inhibition R3” value was found to be 84.052%. Further, in data set [1], half-maximal inhibition (IC50) was put at 19.5 ± 1.37 µM; the “% Inhibition” value was 82.73 ± 1.90%; the “Observation (activity level, Table S9)” value was “High activity”; the “Observation (inhibition level, Table S7)” value is “Good inhibition”.
As to `COc1ccc2[nH]c(C(=O)N/N=C/c3ccc(O)c([N+](=O)[O-])c3)cc2c1` [4d, (E)-N’-(4-Hydroxy-3-nitrobenzylidene)-5-methoxy-1H-indole-2-carbohydrazide], in data set [1] (100 µM), the “% inhibition R1” value was determined as 37.425% and the “% inhibition R3” value was 28.540%. Also, in data set [1], the “% Inhibition” value is reported as 27.97 ± 7.96%; the “Observation (activity level, Table S9)” value is “Low activity”; the “Observation (inhibition level, Table S7)” value was “Low inhibition”.
Consider `COc1ccc2[nH]c(C(=O)N/N=C/c3ccc(O)cc3)cc2c1` [4c, (E)-N’-(4-Hydroxybenzylidene)-5-methoxy-1H-indole-2-carbohydrazide], for which, in data set [1] (100 µM), the “% inhibition R1” value is given as 39.907% and the “% inhibition R3” value worked out at 37.768%. For the same molecule, in data set [1], the “% Inhibition” value is recorded as 32.51 ± 8.99%; the “Observation (activity level, Table S9)” value was “Moderate activity”; the “Observation (inhibition level, Table S7)” value is recorded as “Moderate inhibition”.
Consider `COc1ccc2[nH]c(C(=O)N/N=C/c3ccccc3F)cc2c1` [4f, (E)-N’-(2-Fluorobenzylidene)-5-methoxy-1H-indole-2-carbohydrazide], for which, in data set [1] (100 µM), the “% inhibition R1” value came out at 54.885% and the “% inhibition R3” value is recorded as 51.513%. In addition, in data set [1], the “% Inhibition” value was 50.65 ± 3.86%; the “Observation (activity level, Table S9)” value is listed as “Moderate activity”; the “Observation (inhibition level, Table S7)” value was “Moderate inhibition”.
`COc1ccc(/C=N/NC(=O)c2cc3cc(OC)ccc3[nH]2)c(O)c1` [4e, (E)-N’-(2-Hydroxy-4-methoxybenzylidene)-5-methoxy-1H-indole-2-carbohydrazide]: in data set [1] (100 µM), the “% inhibition R1” value amounted to 87.826% and the “% inhibition R3” value is recorded as 81.926%. Also, in data set [1], half-maximal inhibition (IC50) was put at 16.42 ± 0.08 µM; the “% Inhibition” value is 82.21 ± 4.47%; the “Observation (activity level, Table S9)” value is “High activity”; the “Observation (inhibition level, Table S7)” value is recorded as “Good inhibition”.
Regarding `C[C@H]1O[C@H](O[C@H]2[C@H](O)[C@@H](O)[C@@H](O[C@H]3[C@H](O)[C@@H](O)C(O)O[C@@H]3CO)O[C@@H]2CO)[C@H](O)[C@@H](O)[C@@H]1N[C@H]1C=C(CO)[C@@H](O)[C@H](O)[C@H]1O` (stereo partly shown) [Acarbose, acarbose, reference compound], in data set [1] (100 µM), the “% inhibition R1” value came to 84.457% and the “% inhibition R3” value came out at 85.609%. In addition, the “% Inhibition” value in data set [1] was found to be 84.66 ± 0.71%.
For `COc1ccc2[nH]c(C(=O)N/N=C/c3ccccc3)cc2c1` [4j, (E)-N’-Benzylidene-5-methoxy-1H-indole-2-carbohydrazide], in data set [1] (100 µM), the “% inhibition R1” value amounted to 56.471% and the “% inhibition R3” value turned out to be 49.039%. In data set [1], the “% Inhibition” value is 53.23 ± 3.11%; the “Observation (activity level, Table S9)” value was “Moderate activity”; the “Observation (inhibition level, Table S7)” value is “Moderate inhibition”.
In the case of `COc1ccc2[nH]c(C(=O)N/N=C/c3cccc(Br)c3)cc2c1` [4g, (E)-N’-(3-Bromobenzylidene)-5-methoxy-1H-indole-2-carbohydrazide], in data set [1] (100 µM), the “% inhibition R1” value is 92.817% and the “% inhibition R3” value was determined as 90.041%. In data set [1], half-maximal inhibition (IC50) required 10.89 ± 0.08 µM; the “% Inhibition” value came to 91.06 ± 1.25%; the “Observation (activity level, Table S9)” value is “High activity”; the “Observation (inhibition level, Table S7)” value is “High inhibition”.
